Experimental findings from article PMC6525201, “Targeting lonidamine to mitochondria mitigates lung tumorigenesis and brain metastasis” (Nature Communications, 2019) are described below.

One test addresses T1, mitochondrial complex II (Homo sapiens, UniProt O14521+P21912+Q99643).
T1 construct: gene SDHB; native complex in permeabilized H2030BrM3 cells
Briefly: oxygen consumption rate, Seahorse XF96, permeabilized cells. The format is cell-based.

A further test concerns the target T2, mitochondrial complex I (Homo sapiens, UniProt O75251+O75306+P03886).
T2 construct: gene MT-ND1; native complex in permeabilized H2030BrM3 cells
The description is as above. It counts as cell-based.

By IC50 is commonly meant the point on the concentration scale where inhibition reaches its midpoint. A higher IC50 goes with weaker potency.

T1 sequence (P21912 29-280): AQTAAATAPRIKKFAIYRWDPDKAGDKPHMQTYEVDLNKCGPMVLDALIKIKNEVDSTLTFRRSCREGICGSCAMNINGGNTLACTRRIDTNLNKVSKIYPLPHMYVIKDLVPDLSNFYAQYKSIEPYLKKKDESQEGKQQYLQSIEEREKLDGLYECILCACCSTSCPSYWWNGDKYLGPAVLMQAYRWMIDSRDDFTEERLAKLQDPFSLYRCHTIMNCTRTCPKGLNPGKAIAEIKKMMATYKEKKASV
T1 sequence (Q99643 30-169): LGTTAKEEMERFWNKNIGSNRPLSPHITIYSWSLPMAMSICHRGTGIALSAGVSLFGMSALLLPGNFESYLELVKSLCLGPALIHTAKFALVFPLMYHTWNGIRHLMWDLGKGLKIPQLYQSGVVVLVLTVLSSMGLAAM
T1 sequence (O14521 57-159): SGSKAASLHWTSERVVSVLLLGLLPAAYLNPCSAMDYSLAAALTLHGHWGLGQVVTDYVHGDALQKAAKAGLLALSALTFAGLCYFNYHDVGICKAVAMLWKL
T1 sequence (P31040 43-664 partner): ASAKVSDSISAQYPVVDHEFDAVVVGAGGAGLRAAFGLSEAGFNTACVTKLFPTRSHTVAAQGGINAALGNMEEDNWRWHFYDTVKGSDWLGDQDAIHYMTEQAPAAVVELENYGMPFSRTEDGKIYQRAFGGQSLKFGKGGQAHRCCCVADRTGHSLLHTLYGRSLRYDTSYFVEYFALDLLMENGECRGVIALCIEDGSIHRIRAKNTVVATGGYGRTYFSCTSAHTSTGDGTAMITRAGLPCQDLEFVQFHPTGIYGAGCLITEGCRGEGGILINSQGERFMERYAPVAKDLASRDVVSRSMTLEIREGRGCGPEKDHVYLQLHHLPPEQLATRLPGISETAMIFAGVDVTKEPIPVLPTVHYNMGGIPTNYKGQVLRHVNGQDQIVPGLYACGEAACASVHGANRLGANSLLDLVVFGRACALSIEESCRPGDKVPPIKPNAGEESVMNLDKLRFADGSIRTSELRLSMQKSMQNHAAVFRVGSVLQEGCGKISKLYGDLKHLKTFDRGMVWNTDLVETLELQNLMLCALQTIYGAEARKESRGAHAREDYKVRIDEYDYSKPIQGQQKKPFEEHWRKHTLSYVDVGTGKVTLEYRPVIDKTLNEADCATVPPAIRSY

`O=C(O)c1nn(Cc2ccc(Cl)cc2Cl)c2ccccc12` [LND]: the IC50 against mitochondrial complex II is 390 µM; on mitochondrial complex I it was 444 µM.

For the molecule `O=C(NCCCCCCCCCC[P+](c1ccccc1)(c1ccccc1)c1ccccc1)c1nn(Cc2ccc(Cl)cc2Cl)c2ccccc12` [Mito-LND], the values for the concentration for half-maximal inhibition (IC50) on mitochondrial complex II and against mitochondrial complex I were 2.4 µM and 1.2 µM, respectively.
